# Assay results reported in patent publication US20250161338A1, “Compounds for Anti-aging Intervention” (AGENCY FOR SCIENCE, TECHNOLOGY AND RESEARCH, priority 2022, published 2025).
# Entries after “also recorded” stand apart in the source; their conditions may differ.
# Legend:
# Format in all cases: cell-based
# HEK293 cells [1] = test: CLS in human cells, propidium iodide fluorescence-based method (HEK293); conditions: sixth day after seeding
# Procedure: (§1) Human embryonic kidney 293 (HEK293) cells (ATCC, Manassas, Virginia, United States of America), lung epithelial (A549) cells (ATCC, Manassas, Virginia, United States of America) and fibroblast (IMR90) cells (ATCC, Manassas, Virginia, United States of America) were cultured in the standard D10 medium, consisting of high-glucose DMEM (HyClone, Cytiva, Marlborough, Massachusetts, USA) supplemented with 10% Fetal Bovine Serum (FBS) (Gibco™, ThermoFisher Scientific, Waltham, Massachusetts, USA) and 1% Penicillin Streptomycin Solution (Gibco™, ThermoFisher Scientific, Waltham, Massachusetts, USA). All cells were cultured in a humidified incubator with 5% CO2 at 37° C.
# The stock solution of rapamycin, hemin, 5-fluorouracil, atorvastatin, and methotrexate was prepared in DMSO, followed by serial dilution to form various concentrations used in the experiment. The final DMSO concentration was kept at 0.05% in all experiments. The stock solution of 2,5-anhydro-D-mannitol was prepared in D10 medium. The chemical library used in screening were tested at 1 μM concentrations. Controls used were the same as the solvent applied, DMSO or water.
# The assay was performed by preparing the cells with PI (2 μg/mL or 5 μg/mL) in a D10 medium. […] At different age time points, reading was taken with a Synergy MX microplate reader (BioTek, Winooski, Vermont, United States) at 535 nm excitation and 617 nm emission.
# HEK293 cells [2] = test: CLS in human cells, PrestoBlue outgrowth assay (HEK293)
# Procedure: as §1
# The seeding, washing and trypsinization process was performed similarly to that for the crystal violet assay. 80,000 cells were seeded in a 96-well culture plate with or without compound treatment. At different age time points after seeding, floating dead cells were aspirated with exhausted D10 medium, cells were gently washed with 1×PBS to remove D10 medium residue and treated with 0.2 mL of 0.25% trypsin. […] After one day of growth in a 37° C. incubator with 5% CO2, the cell number was assessed with PrestoBlue™ Cell Viability Reagent (Invitrogen™, Waltham, Massachusetts, USA) according to the manufacturer's protocol. […] After incubation in a 37° C. incubator with 5% CO2 for 3 to 4 hours, reading was taken with a BioTek Synergy MX microplate reader (BioTek, Winooski, Vermont, United States) at excitation and emission wavelengths of 560 nm and 590 nm, respectively.
# PrestoBlue (PB) is a resazurin-based reagent used to detect cell viability and traces of cytotoxicity in the medium. It produces results that can be detected both colorimetrically and fluorometrically. […] The resazurin component is reduced to form resorufin by live cells, resulting in a visible change from blue colour to red colour in the reagent, at the same time developing fluorescence, which can be easily detected by a microplate reader. […] The PB assay was easy to perform as the reagent is a commercially available as ready-to-use solution.
# [3] = tested on: wild-type Saccharomyces cerevisiae CEN.PK113-7D yeast strain; test: Chronological lifespan analysis in yeast (PI, outgrowth, spotting)
# Procedure: Yeast strain was recovered from frozen glycerol stock at 30° C. on YPD agar medium. Yeast was left to propagate in SD medium overnight at 30° C. with shaking at 220 revolutions per minute (rpm). Cells propagated overnight were diluted to a starting optical density at 600 nm (OD600) of approximately 0.2 in fresh SD medium to begin the chronological lifespan (CLS) experiments.
# CLS experiments were performed in 96-well plates with 200 μL yeast culture. Cellular inoculums were transferred into 96-well plates containing serially double-diluted concentrations (0 to 10 nM) of rapamycin. […] Cells were incubated at 30° C., and the growth was measured at different time points. The growth time point 72 hours was considered as Day 1 for the CLS assay. Cell survival was quantified at various age time points by three different approaches: (i) PI fluorescence-based method, (ii) outgrowth in YPD liquid medium, and (iii) spotting assay (FIG. 1).
# Yeast cells (40 μL) from different age time points were transferred into a second 96-well plate (different to the 96-well plate in which the CLS analysis as outlined above was performed). Cells were washed and incubated in 100 μL 1×phosphate buffered saline (PBS) with propidium iodide (PI) (5 μg/mL) for 15 minutes in the dark. Positive and negative control samples were included for quantitative analysis. Positive control (cells boiled at 100° C. for 15 minutes) was PI-stained and processed in the same 96-well plate. Samples without PI-stained cells served as the negative control. After incubation, cells were washed and resuspended in 100 μL PBS. The fluorescence reading of the samples (excitation and emission wavelengths at 535 nm and 617 nm, respectively) and OD600 were measured with a microplate reader (BioTek, Winooski, Vermont, United States). The fluorescence intensity of each sample was normalized with OD600. The background fluorescence signal of the unstained negative sample was subtracted from the normalized fluorescence intensity of each sample. The obtained fluorescence intensity of the positive control (boiled dead cells) was considered 0% cell survival. Cell death was validated by allowing the boiled dead cells to grow in medium. Cell survival at different age time points of samples were calculated by normalizing the fluorescence intensity with positive control sample (boiled cells).
# Yeast stationary culture (3 μL) of different age time points were transferred to a second 96-well plate, containing 200 μL YPD medium, and incubated for 24 hours at 30° C. Outgrowth (OD600) of aged cells was measured by the microplate reader. Quantification of cell survival for each age point was determined as relative to Day 1 (considered 100% cell survival). This quantification was performed by using the formula,
# Yeast stationary culture (3 μL) of different age time points were spotted onto a YPD agar plate and incubated for 48 hours at 30° C. The outgrowth of aged cells on the YPD agar plate was photographed using the Bio-Rad GelDoc Imaging System (Bio-Rad, Hercules, California, United States).
smiles,measurement,setting,value
"OC[C@H]1O[C@H](CO)[C@@H](O)[C@@H]1O [2,5-AM, 2,5-anhydro-D-mannitol]",more live cells compared to the untreated group,HEK293 cells [1]; 2.5 mM,34.39%
same,more live cells compared to the untreated group,HEK293 cells [1]; 5 mM,58.7%
same,more viable cells compared to the untreated group,"HEK293 cells [2]; 2.5 mM, HEK293",76.31%
same,more surviving cells relative to the untreated group,"HEK293 cells [2]; 5 mM, HEK293",123.7%
same,CLS of HEK293 cells by outgrowth method,"HEK293 cells [2]; different concentrations, Day 4 normalized to Day 1 (FIG. 19)",Trends of lifespan extension
same,effect on yeast CLS,"[3]; 0 to 8 mM in SD medium, up to day 21",extended the CLS in a concentration-dependent manner; also recorded: extended the lifespan even at the late stage of chronological aging
same,survival of aged cells,"[3]; 8 mM, Day 21, without compound less than 10%",approximately 65%
same,effect on yeast CLS,[3]; very low concentrations (2 mM),increased CLS
